# Source: ChEMBL document CHEMBL3393036, “Tetra-substituted pyridinylimidazoles as dual inhibitors of p38α mitogen-activated protein kinase and c-Jun N-terminal kinase 3 for potential treatment of neurodegenerative diseases” (J Med Chem, 2015)
# pIC50: −log10 of the molar value.
# Key:
# [1] = target: T1, Mitogen-activated protein kinase 14 (Homo sapiens, UniProt Q16539); experiment: Inhibition of p38alpha (unknown origin) assessed as phosphorylation of ATF-2 by ELISA
# [2] = target: Tyrosine-protein kinase ABL1 (Homo sapiens) (UniProt P00519); experiment: Inhibition of ABL1 (unknown origin) at 5.5 uM by Caliper Mobility Shift Assay
# Tyrosine-protein kinase ABL1 (Homo sapiens), sequence (P00519 whole entry): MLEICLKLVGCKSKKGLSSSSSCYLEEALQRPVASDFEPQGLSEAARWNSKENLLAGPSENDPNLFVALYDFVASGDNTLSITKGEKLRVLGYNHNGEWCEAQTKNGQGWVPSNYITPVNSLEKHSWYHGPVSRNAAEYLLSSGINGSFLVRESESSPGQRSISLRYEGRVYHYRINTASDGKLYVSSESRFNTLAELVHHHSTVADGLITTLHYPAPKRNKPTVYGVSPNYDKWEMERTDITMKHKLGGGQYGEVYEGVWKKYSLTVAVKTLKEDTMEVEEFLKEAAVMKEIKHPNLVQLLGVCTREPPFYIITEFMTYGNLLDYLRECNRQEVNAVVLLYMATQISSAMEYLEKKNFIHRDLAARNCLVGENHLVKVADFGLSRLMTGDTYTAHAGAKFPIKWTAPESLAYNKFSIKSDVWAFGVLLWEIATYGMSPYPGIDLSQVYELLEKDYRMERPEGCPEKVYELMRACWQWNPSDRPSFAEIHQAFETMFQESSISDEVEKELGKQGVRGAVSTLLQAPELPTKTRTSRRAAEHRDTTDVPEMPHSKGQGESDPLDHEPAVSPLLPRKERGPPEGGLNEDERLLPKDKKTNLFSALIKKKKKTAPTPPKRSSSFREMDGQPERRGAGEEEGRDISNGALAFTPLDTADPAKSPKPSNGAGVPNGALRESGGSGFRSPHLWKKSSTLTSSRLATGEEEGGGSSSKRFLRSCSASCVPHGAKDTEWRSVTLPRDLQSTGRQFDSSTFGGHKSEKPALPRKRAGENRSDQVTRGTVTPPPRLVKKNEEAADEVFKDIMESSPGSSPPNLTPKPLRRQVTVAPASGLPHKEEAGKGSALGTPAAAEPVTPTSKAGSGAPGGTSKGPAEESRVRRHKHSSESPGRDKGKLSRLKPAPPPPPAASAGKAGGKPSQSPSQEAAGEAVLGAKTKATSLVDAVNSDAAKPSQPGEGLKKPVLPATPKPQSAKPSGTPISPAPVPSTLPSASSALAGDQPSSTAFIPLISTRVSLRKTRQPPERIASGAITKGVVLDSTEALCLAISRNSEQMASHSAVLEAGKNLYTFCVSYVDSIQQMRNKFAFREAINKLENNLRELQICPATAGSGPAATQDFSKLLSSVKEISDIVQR
# [3] = target: T2, Activin receptor type-1 (Homo sapiens) (UniProt Q04771); experiment: Inhibition of ACVR1 (ALK2) (unknown origin) at 5.5 uM by Caliper Mobility Shift Assay
# T2 sequence (whole entry): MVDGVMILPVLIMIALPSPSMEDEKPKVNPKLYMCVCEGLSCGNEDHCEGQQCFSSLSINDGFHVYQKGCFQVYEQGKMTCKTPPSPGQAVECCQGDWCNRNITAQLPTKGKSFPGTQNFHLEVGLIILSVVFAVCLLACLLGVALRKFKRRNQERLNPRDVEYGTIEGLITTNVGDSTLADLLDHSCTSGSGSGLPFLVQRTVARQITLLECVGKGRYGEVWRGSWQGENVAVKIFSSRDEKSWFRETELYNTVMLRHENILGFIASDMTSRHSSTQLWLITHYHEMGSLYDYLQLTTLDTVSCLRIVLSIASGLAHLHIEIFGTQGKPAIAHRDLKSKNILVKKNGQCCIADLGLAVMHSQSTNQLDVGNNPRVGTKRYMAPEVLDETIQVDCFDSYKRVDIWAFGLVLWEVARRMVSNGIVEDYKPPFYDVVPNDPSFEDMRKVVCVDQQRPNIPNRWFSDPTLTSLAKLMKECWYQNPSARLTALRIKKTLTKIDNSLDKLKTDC
# [4] = target: RAC-alpha serine/threonine-protein kinase (Homo sapiens) (UniProt P31749); experiment: Inhibition of AKT1 (PKBa) (unknown origin) at 5.5 uM by Caliper Mobility Shift Assay
# [5] = target: T3, Aurora kinase A (Homo sapiens) (UniProt O14965); experiment: Inhibition of AURKA (unknown origin) at 5.5 uM by Caliper Mobility Shift Assay
# T3 sequence (whole entry): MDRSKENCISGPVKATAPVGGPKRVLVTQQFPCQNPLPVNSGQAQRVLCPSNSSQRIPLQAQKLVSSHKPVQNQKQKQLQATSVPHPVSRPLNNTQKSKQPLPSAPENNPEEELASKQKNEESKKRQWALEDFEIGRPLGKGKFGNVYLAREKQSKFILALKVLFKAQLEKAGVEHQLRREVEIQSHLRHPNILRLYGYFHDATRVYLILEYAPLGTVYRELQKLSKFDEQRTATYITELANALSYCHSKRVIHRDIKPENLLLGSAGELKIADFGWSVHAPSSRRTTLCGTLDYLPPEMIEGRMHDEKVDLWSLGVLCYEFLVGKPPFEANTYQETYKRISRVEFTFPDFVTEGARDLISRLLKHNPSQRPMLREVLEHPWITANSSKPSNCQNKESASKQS
# [6] = target: Tyrosine-protein kinase BTK (Homo sapiens) (UniProt Q06187); experiment: Inhibition of BTK (unknown origin) at 5.5 uM by Caliper Mobility Shift Assay
# [7] = target: Calcium/calmodulin-dependent protein kinase type II subunit beta (Homo sapiens) (UniProt Q13554); experiment: Inhibition of CAMK2 (unknown origin) at 5.5 uM by Caliper Mobility Shift Assay
# Calcium/calmodulin-dependent protein kinase type II subunit beta (Homo sapiens), sequence (Q13554 whole entry): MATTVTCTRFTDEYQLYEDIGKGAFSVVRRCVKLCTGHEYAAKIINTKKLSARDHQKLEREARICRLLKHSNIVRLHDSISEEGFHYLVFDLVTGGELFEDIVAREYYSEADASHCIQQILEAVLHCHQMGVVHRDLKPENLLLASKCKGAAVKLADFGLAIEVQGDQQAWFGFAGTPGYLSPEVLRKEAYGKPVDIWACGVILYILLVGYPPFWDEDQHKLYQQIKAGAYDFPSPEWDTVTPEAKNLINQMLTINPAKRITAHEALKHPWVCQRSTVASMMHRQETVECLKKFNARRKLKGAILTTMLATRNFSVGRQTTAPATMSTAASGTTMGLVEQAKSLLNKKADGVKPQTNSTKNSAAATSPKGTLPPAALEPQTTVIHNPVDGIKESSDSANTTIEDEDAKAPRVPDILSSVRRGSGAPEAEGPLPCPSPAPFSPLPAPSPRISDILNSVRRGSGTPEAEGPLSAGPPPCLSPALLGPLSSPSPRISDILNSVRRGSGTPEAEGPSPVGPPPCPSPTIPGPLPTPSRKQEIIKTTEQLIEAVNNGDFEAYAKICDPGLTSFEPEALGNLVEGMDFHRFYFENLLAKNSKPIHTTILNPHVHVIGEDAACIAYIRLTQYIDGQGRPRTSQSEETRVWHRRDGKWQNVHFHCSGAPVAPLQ
# [8] = organism: Homo sapiens; experiment: Inhibition of CDK1B (unknown origin) at 5.5 uM by Caliper Mobility Shift Assay
# [9] = target: Tyrosine-protein kinase CSK (Homo sapiens) (UniProt P41240); experiment: Inhibition of CSK (unknown origin) at 5.5 uM by Caliper Mobility Shift Assay
# [10] = target: Proto-oncogene tyrosine-protein kinase Src (Homo sapiens) (UniProt P12931); experiment: Inhibition of cSRC (unknown origin) at 5.5 uM by Caliper Mobility Shift Assay
# [11] = target: Fibroblast growth factor receptor 4 (Homo sapiens) (UniProt P22455); experiment: Inhibition of FGFR4 (unknown origin) at 5.5 uM by Caliper Mobility Shift Assay
# [12] = target: Receptor-type tyrosine-protein kinase FLT3 (Homo sapiens) (UniProt P36888); experiment: Inhibition of FLT3 (unknown origin) at 5.5 uM by Caliper Mobility Shift Assay
# [13] = target: Glycogen synthase kinase-3 beta (Homo sapiens) (UniProt P49841); experiment: Inhibition of GSK3beta (unknown origin) at 5.5 uM by Caliper Mobility Shift Assay
# Glycogen synthase kinase-3 beta (Homo sapiens), sequence (P49841 whole entry, looked up): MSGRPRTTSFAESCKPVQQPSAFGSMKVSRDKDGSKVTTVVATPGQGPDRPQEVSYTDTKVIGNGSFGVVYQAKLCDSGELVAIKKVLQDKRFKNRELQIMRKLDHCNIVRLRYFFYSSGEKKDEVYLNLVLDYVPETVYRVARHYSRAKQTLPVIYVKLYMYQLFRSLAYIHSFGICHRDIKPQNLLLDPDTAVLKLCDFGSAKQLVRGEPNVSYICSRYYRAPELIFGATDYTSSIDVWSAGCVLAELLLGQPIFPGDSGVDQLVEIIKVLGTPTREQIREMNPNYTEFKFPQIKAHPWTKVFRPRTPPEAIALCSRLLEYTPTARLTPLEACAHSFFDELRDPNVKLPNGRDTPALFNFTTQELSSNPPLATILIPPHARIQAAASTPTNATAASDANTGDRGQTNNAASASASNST
# [14] = target: Insulin receptor (Homo sapiens) (UniProt P06213); experiment: Inhibition of INSR (unknown origin) at 5.5 uM by Caliper Mobility Shift Assay
# [15] = target: Interleukin-1 receptor-associated kinase 1 (Homo sapiens) (UniProt P51617); experiment: Inhibition of IRAK1 (unknown origin) at 5.5 uM by Caliper Mobility Shift Assay
# [16] = target: Mitogen-activated protein kinase 10 (Homo sapiens, UniProt P53779); experiment: Inhibition of MAPK10 (JNK3) (unknown origin) at 5.5 uM by Caliper Mobility Shift Assay
# [17] = target: T1, Mitogen-activated protein kinase 14; experiment: Inhibition of p38a (unknown origin) at 5.5 uM by Caliper Mobility Shift Assay
# [18] = target: Ribosomal protein S6 kinase beta-2 (Homo sapiens) (UniProt Q9UBS0); experiment: Inhibition of S6K (unknown origin) at 5.5 uM by Caliper Mobility Shift Assay
# [19] = target: T4, Serine/threonine-protein kinase 17B (Homo sapiens) (UniProt O94768); experiment: Inhibition of STK17B (unknown origin) at 5.5 uM by Caliper Mobility Shift Assay
# T4 sequence (whole entry): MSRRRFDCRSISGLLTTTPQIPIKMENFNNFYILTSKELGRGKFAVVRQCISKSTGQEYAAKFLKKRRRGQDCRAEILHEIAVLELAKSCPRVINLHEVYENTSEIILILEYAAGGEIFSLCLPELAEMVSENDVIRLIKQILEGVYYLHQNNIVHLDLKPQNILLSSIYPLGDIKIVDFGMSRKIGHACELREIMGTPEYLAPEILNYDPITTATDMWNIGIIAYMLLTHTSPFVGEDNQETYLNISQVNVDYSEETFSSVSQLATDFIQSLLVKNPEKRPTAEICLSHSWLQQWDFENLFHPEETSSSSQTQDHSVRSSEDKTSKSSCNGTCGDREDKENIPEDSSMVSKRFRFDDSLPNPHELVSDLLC
# [20] = target: Serine/threonine-protein kinase WNK1 (Homo sapiens) (UniProt Q9H4A3); experiment: Inhibition of WNK1 (unknown origin) at 5.5 uM by Caliper Mobility Shift Assay
# Serine/threonine-protein kinase WNK1 (Homo sapiens), sequence (Q9H4A3 whole entry, looked up): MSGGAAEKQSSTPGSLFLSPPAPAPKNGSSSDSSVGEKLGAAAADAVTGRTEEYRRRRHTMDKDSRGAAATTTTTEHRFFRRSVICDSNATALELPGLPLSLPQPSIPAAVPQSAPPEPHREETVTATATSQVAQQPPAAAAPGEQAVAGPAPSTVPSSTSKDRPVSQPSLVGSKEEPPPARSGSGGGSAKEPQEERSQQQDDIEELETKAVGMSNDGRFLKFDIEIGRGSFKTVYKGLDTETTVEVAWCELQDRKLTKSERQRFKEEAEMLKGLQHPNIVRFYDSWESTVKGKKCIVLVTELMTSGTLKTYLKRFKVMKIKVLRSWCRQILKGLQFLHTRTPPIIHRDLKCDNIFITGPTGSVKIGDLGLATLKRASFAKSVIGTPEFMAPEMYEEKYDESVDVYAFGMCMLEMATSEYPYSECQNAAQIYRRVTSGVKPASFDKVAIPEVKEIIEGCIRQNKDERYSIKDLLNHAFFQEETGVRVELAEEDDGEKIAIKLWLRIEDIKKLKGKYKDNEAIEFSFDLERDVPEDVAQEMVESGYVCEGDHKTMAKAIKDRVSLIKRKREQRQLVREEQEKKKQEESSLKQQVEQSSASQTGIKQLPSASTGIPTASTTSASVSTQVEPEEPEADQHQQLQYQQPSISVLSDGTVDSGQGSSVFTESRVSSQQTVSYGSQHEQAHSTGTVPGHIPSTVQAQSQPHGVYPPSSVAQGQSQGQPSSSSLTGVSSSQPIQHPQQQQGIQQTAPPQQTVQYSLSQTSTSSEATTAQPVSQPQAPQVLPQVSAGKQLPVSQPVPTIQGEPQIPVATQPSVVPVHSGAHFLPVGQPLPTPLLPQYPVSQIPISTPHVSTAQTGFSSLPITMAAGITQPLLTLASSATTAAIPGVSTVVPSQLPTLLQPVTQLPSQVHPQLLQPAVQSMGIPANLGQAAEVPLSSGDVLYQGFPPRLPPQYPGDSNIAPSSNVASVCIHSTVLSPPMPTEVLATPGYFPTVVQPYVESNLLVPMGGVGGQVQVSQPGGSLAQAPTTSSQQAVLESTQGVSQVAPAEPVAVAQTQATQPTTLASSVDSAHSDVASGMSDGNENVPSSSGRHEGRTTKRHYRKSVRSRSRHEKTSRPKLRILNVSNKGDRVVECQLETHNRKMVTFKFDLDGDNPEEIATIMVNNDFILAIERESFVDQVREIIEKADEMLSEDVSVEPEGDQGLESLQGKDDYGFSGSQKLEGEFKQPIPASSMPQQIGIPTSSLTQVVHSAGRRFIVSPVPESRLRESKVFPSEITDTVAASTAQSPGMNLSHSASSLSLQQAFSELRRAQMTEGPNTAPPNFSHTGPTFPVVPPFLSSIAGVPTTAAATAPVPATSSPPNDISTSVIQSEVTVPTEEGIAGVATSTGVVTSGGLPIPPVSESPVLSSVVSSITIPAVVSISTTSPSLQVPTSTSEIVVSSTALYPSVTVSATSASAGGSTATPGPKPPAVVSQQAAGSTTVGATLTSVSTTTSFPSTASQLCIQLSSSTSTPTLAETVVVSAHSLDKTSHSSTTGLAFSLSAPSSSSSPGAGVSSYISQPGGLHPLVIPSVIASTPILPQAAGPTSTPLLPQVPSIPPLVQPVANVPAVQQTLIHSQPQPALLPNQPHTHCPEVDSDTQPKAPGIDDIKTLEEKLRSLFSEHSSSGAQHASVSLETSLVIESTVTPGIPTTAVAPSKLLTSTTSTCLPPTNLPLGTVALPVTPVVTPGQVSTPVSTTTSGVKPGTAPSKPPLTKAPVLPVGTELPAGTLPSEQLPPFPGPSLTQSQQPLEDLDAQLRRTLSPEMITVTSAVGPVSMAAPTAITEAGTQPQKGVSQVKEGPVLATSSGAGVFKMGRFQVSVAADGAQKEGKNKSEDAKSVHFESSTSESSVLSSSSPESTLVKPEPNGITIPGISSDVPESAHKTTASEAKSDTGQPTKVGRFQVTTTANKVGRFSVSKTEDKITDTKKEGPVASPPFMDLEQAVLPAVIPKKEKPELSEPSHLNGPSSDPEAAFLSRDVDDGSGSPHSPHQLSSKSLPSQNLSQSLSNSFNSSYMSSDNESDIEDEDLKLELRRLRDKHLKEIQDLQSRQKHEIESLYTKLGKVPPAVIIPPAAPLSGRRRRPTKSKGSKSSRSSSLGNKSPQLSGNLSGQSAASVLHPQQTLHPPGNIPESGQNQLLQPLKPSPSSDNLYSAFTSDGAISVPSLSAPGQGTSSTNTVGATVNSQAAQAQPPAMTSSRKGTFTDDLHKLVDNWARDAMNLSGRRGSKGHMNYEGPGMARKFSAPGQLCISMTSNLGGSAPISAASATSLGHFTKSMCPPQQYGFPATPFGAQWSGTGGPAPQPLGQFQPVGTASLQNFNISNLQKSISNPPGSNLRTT
# T1 sequence (Q16539 whole entry): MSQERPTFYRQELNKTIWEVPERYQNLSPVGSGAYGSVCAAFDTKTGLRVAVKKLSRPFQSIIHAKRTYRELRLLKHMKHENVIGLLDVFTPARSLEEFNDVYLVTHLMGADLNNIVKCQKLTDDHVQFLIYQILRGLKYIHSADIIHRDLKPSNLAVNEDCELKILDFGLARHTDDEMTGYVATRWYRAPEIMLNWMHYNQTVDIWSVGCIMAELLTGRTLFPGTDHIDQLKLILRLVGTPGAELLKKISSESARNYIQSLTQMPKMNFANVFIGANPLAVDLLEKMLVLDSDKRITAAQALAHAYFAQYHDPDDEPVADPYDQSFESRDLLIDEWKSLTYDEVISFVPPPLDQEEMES
SMILES,pIC50 [1],inhibition [2],inhibition [3],inhibition [4],inhibition [5],inhibition [6],inhibition [7],inhibition [8],inhibition [9],inhibition [10],inhibition [11],inhibition [12],inhibition [13],inhibition [14],inhibition [15],inhibition [16],inhibition [17],inhibition [18],inhibition [19],inhibition [20]
CC(=O)Nc1cc(-c2c(-c3ccc(F)cc3)nc(S/C=C\C(=O)O)n2C2CCCCC2)ccn1,6.78,< 50%,< 50%,< 50%,< 50%,< 50%,< 50%,< 50%,< 50%,< 50%,< 50%,< 50%,< 50%,< 50%,< 50%,< 50%,< 50%,< 50%,< 50%,< 50%
CC(=O)Nc1cc(-c2c(-c3ccc(F)cc3)nc(S/C=C\C(=O)O)n2CC2CCCO2)ccn1 (racemic),6.65,< 50%,< 50%,< 50%,< 50%,< 50%,< 50%,< 50%,< 50%,< 50%,< 50%,< 50%,< 50%,< 50%,< 50%,< 50%,< 50%,< 50%,< 50%,< 50%
CC(=O)Nc1cc(-c2c(-c3ccc(F)cc3)nc(Sc3cccc(I)n3)n2C2CCCCC2)ccn1,6.45,< 50%,< 50%,< 50%,< 50%,< 50%,< 50%,< 50%,< 50%,< 50%,< 50%,< 50%,< 50%,< 50%,< 50%,< 50%,< 50%,< 50%,< 50%,< 50%

# Continued, values first:
pIC50 [1],inhibition [2],inhibition [3],inhibition [4],inhibition [5],inhibition [6],inhibition [7],inhibition [8],inhibition [9],inhibition [10],inhibition [11],inhibition [12],inhibition [13],inhibition [14],inhibition [15],inhibition [16],inhibition [17],inhibition [18],inhibition [19],inhibition [20],SMILES
6.91,< 50%,< 50%,< 50%,< 50%,< 50%,< 50%,< 50%,< 50%,< 50%,< 50%,< 50%,< 50%,< 50%,< 50%,< 50%,< 50%,< 50%,< 50%,< 50%,CC(=O)Nc1cc(-c2c(-c3ccc(F)cc3)nc(S/C=C\C(=O)O)n2C2CC2)ccn1
6.87,< 50%,< 50%,< 50%,< 50%,< 50%,< 50%,< 50%,< 50%,< 50%,< 50%,< 50%,< 50%,< 50%,< 50%,< 50%,< 50%,< 50%,< 50%,< 50%,COC(Cn1c(SC2CCC(C(=O)O)CC2O)nc(-c2ccc(F)cc2)c1-c1ccnc(NC(C)=O)c1)OC (stereo not given)
